Experimental data published in publication PMC12957839, “Antiviral activity and mechanism of purine morpholine nucleoside analogues incorporating a sulfonamide fragment” (Journal of Advanced Research, 2025).
Converted amounts (≈) assume the structure as drawn.

Columns and labels:
Format in all cases: in vivo, Pepper mild mottle virus (PMMoV)
PMMoV [1] = test: Antiviral activity assay against PMMoV, curative activity; parameters: Curative activity: concentration or dose not given beside the values; conditions: against PMMoV, average of three replicates, ± standard deviation; for EC50: Pepper mild mottle virus, read-out: EC50 of curative activity
Experimental: (§1) Virions were isolated and extracted from leaves of N. benthamiana infected with PMMoV referring to the method recorded in the literature. And the inhibiting activities of C1–C38 against PMMoV were assessed with reference to the literature as well [26, 34].

PMMoV [2] = test: Antiviral activity assay against PMMoV, inactivating activity; conditions: against PMMoV, average of three replicates, ± standard deviation; for pest or weed control at 500 µg/mL / EC50: Pepper mild mottle virus; for pest or weed control at 500 µg/mL: read-out: Inactivating activity; for EC50: read-out: EC50 of inactivating activity; for pest or weed control at 500 µg/mL / Inactivating activity: at 500 µg/mL
Experimental: as §1

PMMoV [3] = test: Antiviral activity assay against PMMoV, protective activity; parameters: Protective activity: concentration or dose not given beside the values; conditions: against PMMoV, average of three replicates, ± standard deviation; for EC50: Pepper mild mottle virus, read-out: EC50 of protective activity
Experimental: as §1

| SMILES | EC50 (PMMoV [1]) [µg/mL] | Curative activity (PMMoV [1]) [%] | pest or weed control at 500 µg/mL (PMMoV [2]) [%] | EC50 (PMMoV [2]) [µg/mL] | EC50 (PMMoV [3]) [µg/mL] | Protective activity (PMMoV [3]) [%] | Inactivating activity (PMMoV [2]) [%] |
| --- | --- | --- | --- | --- | --- | --- | --- |
| CC(=O)OCC1OC(n2cnc3c(N4CCOCC4)nc(F)nc32)C(NS(=O)(=O)c2ccc([N+](=O)[O-])cc2)C(OC(C)=O)C1OC(C)=O (centres unmarked) [C3] | 11.5 ± 4.4 (≈ 16.5 µM) | 67.0 ± 3.6 | 68.9 ± 4.9 | 198 ± 16.1 (≈ 285 µM) | 388 ± 16.6 (≈ 557 µM) | 57.5 ± 4.3 | – |
| CC(=O)OCC1OC(n2cnc3c(N4CCOCC4)nc(Cl)nc32)C(NS(=O)(=O)c2ccc([N+](=O)[O-])cc2)C(OC(C)=O)C1OC(C)=O (centres unmarked) [C4] | 219 ± 9 (≈ 308 µM) | 61.2 ± 3.7 | 64.1 ± 3.5 | 141 ± 12.1 (≈ 198 µM) | 475 ± 15.8 (≈ 667 µM) | 52.6 ± 2.0 | – |
| CC(=O)OCC1OC(n2cnc3c(N4CCOCC4)ncnc32)C(NS(=O)(=O)c2cccc([N+](=O)[O-])c2)C(OC(C)=O)C1OC(C)=O (centres unmarked) [C5] | 63.8 ± 5.3 (≈ 94.1 µM) | 60.3 ± 2.5 | 47.5 ± 1.4 | 622 ± 14.7 (≈ 918 µM) | 2280 ± 24.8 (≈ 3370 µM) | 43.3 ± 2.3 | – |
| CC(=O)OCC1OC(n2cnc3c(N4CCOCC4)ncnc32)C(NS(=O)(=O)c2ccccc2[N+](=O)[O-])C(OC(C)=O)C1OC(C)=O (centres unmarked) [C6] | 132 ± 9.4 (≈ 194 µM) | 67.0 ± 4.9 | 60.8 ± 1.9 | 182 ± 7.8 (≈ 268 µM) | 358 ± 12.3 (≈ 528 µM) | 52.0 ± 2.3 | – |
| CC(=O)OCC1OC(n2cnc3c(N4CCOCC4)ncnc32)C(NS(=O)(=O)c2ccc(C#N)cc2)C(OC(C)=O)C1OC(C)=O (centres unmarked) [C7] | 281 ± 10.3 (≈ 427 µM) | 55.8 ± 1.3 | 36.6 ± 3.2 | 2415 ± 17.2 (≈ 3670 µM) | 793 ± 17.1 (≈ 1210 µM) | 44.7 ± 1.4 | – |
| CC(=O)OCC1OC(n2cnc3c(N4CCOCC4)nc(Cl)nc32)C(NS(=O)(=O)c2ccc(C#N)cc2)C(OC(C)=O)C1OC(C)=O (centres unmarked) [C8] | 64.6 ± 4.6 (≈ 93.3 µM) | 69.6 ± 1.3 | 56.6 ± 4 | 222 ± 4.8 (≈ 321 µM) | 1040 ± 19.4 (≈ 1510 µM) | 44.3 ± 1.8 | – |
| CC(=O)OCC1OC(n2cnc3c(N4CCOCC4)ncnc32)C(NS(=O)(=O)c2ccc(Cl)cc2)C(OC(C)=O)C1OC(C)=O (centres unmarked) [C9] | 33.3 ± 1.2 (≈ 49.9 µM) | 70.9 ± 4.9 | 65.8 ± 3.9 | 103 ± 9.1 (≈ 155 µM) | 267 ± 8.6 (≈ 401 µM) | 58.9 ± 4.0 | – |
| CC(=O)OCC1OC(n2cnc3c(N4CCOCC4)ncnc32)C(NS(=O)(=O)c2cccc(Cl)c2)C(OC(C)=O)C1OC(C)=O (centres unmarked) [C10] | 22.2 ± 3.4 (≈ 33.3 µM) | 62.1 ± 5.8 | 60.5 | 16.3 ± 1.9 (≈ 24.4 µM) | 17.8 ± 2.1 (≈ 26.7 µM) | 67.0 ± 4.3 | 60.5 ± 1.8 |
| CC(=O)OCC1OC(n2cnc3c(N4CCOCC4)nc(N)nc32)C(NS(=O)(=O)c2cccc(Cl)c2)C(OC(C)=O)C1OC(C)=O (centres unmarked) [C11] | 372 ± 18.4 (≈ 545 µM) | 51.8 ± 1.0 | 51.8 ± 2.1 | 497.1 ± 3 (≈ 729 µM) | 225 ± 11.9 (≈ 329 µM) | 58.8 ± 3.1 | – |
| COc1ccc(S(=O)(=O)NC2C(OC(C)=O)C(OC(C)=O)C(COC(C)=O)OC2n2cnc3c(N4CCOCC4)ncnc32)cc1 (centres unmarked) [C12] | 53 ± 2.1 (≈ 80 µM) | 63.5 ± 2.6 | 71.5 ± 5 | 43.1 ± 1.1 (≈ 65 µM) | 134 ± 7.4 (≈ 203 µM) | 65.6 ± 4.7 | – |
| COc1ccc(S(=O)(=O)NC2C(OC(C)=O)C(OC(C)=O)C(COC(C)=O)OC2n2cnc3c(N4CCOCC4)nc(F)nc32)cc1 (centres unmarked) [C13] | 20.9 ± 3 (≈ 30.7 µM) | 72.5 ± 2.6 | 47.3 ± 2.7 | 458.1 ± 3.3 (≈ 673 µM) | 596 ± 10.9 (≈ 876 µM) | 46.5 ± 3.4 | – |
| COc1ccc(S(=O)(=O)NC2C(OC(C)=O)C(OC(C)=O)C(COC(C)=O)OC2n2cnc3c(N4CCOCC4)nc(N)nc32)cc1 (centres unmarked) [C14] | 100 ± 8.9 (≈ 148 µM) | 53.6 ± 2.4 | 38.5 ± 2 | 4507 ± 24.2 (≈ 6650 µM) | 926 ± 11.4 (≈ 1370 µM) | 38.3 ± 4.4 | – |
| CC(=O)OCC1OC(n2cnc3c(N4CCOCC4)ncnc32)C(NS(=O)(=O)c2ccc(Br)cc2)C(OC(C)=O)C1OC(C)=O (centres unmarked) [C15] | 61 ± 5.4 (≈ 85.7 µM) | 65.6 ± 3.4 | 47.7 ± 0.69 | 593 ± 13.7 (≈ 833 µM) | 103 ± 6.4 (≈ 145 µM) | 62.5 ± 3.3 | – |
| CC(=O)OCC1OC(n2cnc3c(N4CCOCC4)ncnc32)C(NS(=O)(=O)c2cccc(Br)c2)C(OC(C)=O)C1OC(C)=O (centres unmarked) [C16] | 48.5 ± 3.1 (≈ 68.2 µM) | 58.9 ± 4.2 | 55.9 ± 1.5 | 171 ± 9.6 (≈ 241 µM) | 664 ± 12.4 (≈ 933 µM) | 45.3 ± 2.5 | – |
| CC(=O)OCC1OC(n2cnc3c(N4CCOCC4)ncnc32)C(NS(=O)(=O)c2ccccc2Br)C(OC(C)=O)C1OC(C)=O (centres unmarked) [C17] | 16.1 ± 2.7 (≈ 22.6 µM) | 70.5 ± 3.8 | 59.9 ± 4 | 84 ± 2.8 (≈ 118 µM) | 140 ± 9.5 (≈ 197 µM) | 61.0 ± 5.3 | – |
| CC(=O)OCC1OC(n2cnc3c(N4CCOCC4)ncnc32)C(NS(=O)(=O)c2ccccc2)C(OC(C)=O)C1OC(C)=O (centres unmarked) [C18] | 24.7 ± 1.3 (≈ 39 µM) | 63.5 ± 2.5 | 61.3 ± 2.8 | 134 ± 8.5 (≈ 212 µM) | 994 ± 11.2 (≈ 1570 µM) | 41.9 ± 2.9 | – |
| CC(=O)OCC1OC(n2cnc3c(N4CCOCC4)nc(F)nc32)C(NS(=O)(=O)c2ccccc2)C(OC(C)=O)C1OC(C)=O (centres unmarked) [C19] | 36.7 ± 3.7 (≈ 56.4 µM) | 69.5 ± 4.7 | 69.7 ± 1.9 | 25.5 ± 4 (≈ 39.2 µM) | 159 ± 11.8 (≈ 245 µM) | 59.8 ± 3.6 | – |
| CC(=O)OCC1OC(n2cnc3c(N4CCOCC4)nc(Cl)nc32)C(NS(=O)(=O)c2ccccc2)C(OC(C)=O)C1OC(C)=O (centres unmarked) [C20] | 30.1 ± 3.5 (≈ 45.1 µM) | 74.8 ± 4.8 | 72 ± 4.2 | 28.5 ± 4.2 (≈ 42.7 µM) | 292 ± 17.6 (≈ 438 µM) | 54.8 ± 2.8 | – |
| CC(=O)OCC1OC(n2cnc3c(N4CCOCC4)ncnc32)C(NS(=O)(=O)c2c(C)cc(C)cc2C)C(OC(C)=O)C1OC(C)=O (centres unmarked) [C21] | 61.6 ± 5.3 (≈ 91.3 µM) | 66.9 ± 1.8 | 68.7 ± 4.5 | 83.2 ± 3.7 (≈ 123 µM) | 74 ± 5.1 (≈ 110 µM) | 60.7 ± 2.5 | – |
| CC(=O)OCC1OC(n2cnc3c(N4CCOCC4)nc(N)nc32)C(NS(=O)(=O)c2c(C)cc(C)cc2C)C(OC(C)=O)C1OC(C)=O (centres unmarked) [C22] | 26.2 ± 1.3 (≈ 38 µM) | 67.6 ± 1.9 | 61.3 | 13.7 ± 1.6 (≈ 19.9 µM) | 38 ± 3.5 (≈ 55.1 µM) | 61.2 ± 1.6 | 61.3 ± 4.5 |
| CC(=O)OCC1OC(n2cnc3c(N4CCOCC4)nc(Cl)nc32)C(NS(=O)(=O)c2c(C)cc(C)cc2C)C(OC(C)=O)C1OC(C)=O (centres unmarked) [C23] | 11.3 ± 3.3 (≈ 15.9 µM) | 69.0 ± 3.5 | 55.4 ± 2.6 | 240 ± 17.8 (≈ 338 µM) | 145 ± 7.7 (≈ 204 µM) | 57.4 ± 1.6 | – |
| CC(=O)OCC1OC(n2cnc3c(N4CCOCC4)ncnc32)C(NS(=O)(=O)c2ccc(C(F)(F)F)cc2)C(OC(C)=O)C1OC(C)=O (centres unmarked) [C26] | 45.1 ± 4.7 (≈ 64.4 µM) | 67.6 ± 2.5 | 45.5 ± 2.6 | 632 ± 15.2 (≈ 902 µM) | 788 ± 12.8 (≈ 1120 µM) | 44.5 ± 1.6 | – |
| CC(=O)OCC1OC(n2cnc3c(N4CCOCC4)nc(Cl)nc32)C(NS(=O)(=O)c2ccc(C(F)(F)F)cc2)C(OC(C)=O)C1OC(C)=O (centres unmarked) [C27] | 51.1 ± 3.6 (≈ 69.5 µM) | 69.9 ± 3.6 | 62.4 ± 4.7 | 184 ± 10 (≈ 251 µM) | 534 ± 14.9 (≈ 726 µM) | 45.0 ± 3.4 | – |
